Measured values published in the supplement of paper PMC11208160.

Test: recombinant UMI read abundance after kanamycin selection (control-corrected) (log10(CPM+1)); higher = more efficient recombination; extreme values may be limits of the assay; sequences stand for … in AGTGCAGAGAAAATCGGCCAGTTTTCTCTGCCTGCAGTCCGCATGCCGTGGGACCCCTTGGGTTCTAACCTGTTGCCTAGATTTATGCAGCGGACTGCCTTTCTCCCAAAGTGATAAACCGG…AGGTTGGTTTCACT; site = the 11-nt donor
Method in brief: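 Pooled Escherichia coli screen of donor and donor-binding-loop pairs for the IS621 bridge recombinase. Each pair sits with a 12-nt UMI on a plasmid carrying a promoterless kanamycin gene. The library was co-electroporated with a target plasmid encoding a fixed target and T7-inducible recombinase, then plated with IPTG (0.07 mM) plus kanamycin, or unselected, each in two replicates. Recombinant UMIs were PCR-amplified across the donor–target junction and sequenced. Counts became CPM, averaged over replicates, scaled by control-derived factors and reported as log10(CPM+1).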
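Further: IS621 bridge recombinase in Escherichia coli cells against a fixed T5 target plasmid.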

| Sequence | recombinant UMI read abundance (log10) |
| --- | --- |
| CCCTATCCATGGACCGGTTTTCCCGGTAATCCGTATTTGCC (site CCCTACCCTGG) | 0 |
| CCCTATCCATGGACCGGTTTTCCCGGTAATCCGTATTTGCC (site CCCTAGCCTGG) | 0 |
| CCCTATCCATGGACCGGTTTTCCCGGTAATCCGTATTTGCC (site CCCTATCCTGG) | 0.417 |
| CCCTGCTCATGGACCGGTTTTCCCGGTAATCCGTATTTGGG (site CCCTACTCTCC) | 0.174 |
| CCCTGCTCATGGACCGGTTTTCCCGGTAATCCGTATTTGGG (site CCCTCCTCTCC) | 0.027 |
| CCCTGCTCATGGACCGGTTTTCCCGGTAATCCGTATTTGGG (site CCCTGCTCTCC) | 0.409 |
| CCCTGCTCATGGACCGGTTTTCCCGGTAATCCGTATTTGGG (site CCCTTCTCTCC) | 0.018 |
| CCCTGGCCATGGACCGGTTTTCCCGGTAATCCGTATTTGCC (site CCCTAGCCTGG) | 0 |
| CCCTGGCCATGGACCGGTTTTCCCGGTAATCCGTATTTGCC (site CCCTCGCCTGG) | 0 |
| CCCTGGCCATGGACCGGTTTTCCCGGTAATCCGTATTTGCC (site CCCTGGCCTGG) | 0 |
| CCCTGGCCATGGACCGGTTTTCCCGGTAATCCGTATTTGCC (site CCCTTGCCTGG) | 0 |
| CCCTTCACATGGACCGGTTTTCCCGGTAATCCGTATTTGGG (site CCCTTCACTCC) | 0.004 |
| CCCTTCACATGGACCGGTTTTCCCGGTAATCCGTATTTGGG (site CCCTTCCCTCC) | 0.0128 |
| CCCTTCACATGGACCGGTTTTCCCGGTAATCCGTATTTGGG (site CCCTTCGCTCC) | 0.0224 |
| CCCTTCACATGGACCGGTTTTCCCGGTAATCCGTATTTGGG (site CCCTTCTCTCC) | 0.0124 |
| CCCTTCCCATGGACCGGTTTTCCCGGTAATCCGTATTTGGG (site CCCTTCACTCC) | 0.0226 |
| CCCTTCCCATGGACCGGTTTTCCCGGTAATCCGTATTTGGG (site CCCTTCCCTCC) | 0.00862 |

| Sequence | recombinant UMI read abundance (log10) |
| --- | --- |
| CCCTTCCCATGGACCGGTTTTCCCGGTAATCCGTATTTGGG (site CCCTTCGCTCC) | 0.00355 |
| CCCTTCCCATGGACCGGTTTTCCCGGTAATCCGTATTTGGG (site CCCTTCTCTCC) | 0.0121 |
| CCCTTCTCATGGACCGGTTTTCCCGGTAATCCGTATTTGGC (site CCCTTCTCTAC) | 0.0232 |
| CCCTTCTCATGGACCGGTTTTCCCGGTAATCCGTATTTGGC (site CCCTTCTCTCC) | 0.455 |
| CCCTTCTCATGGACCGGTTTTCCCGGTAATCCGTATTTGGC (site CCCTTCTCTGC) | 1.71 |
| CCCTTCTCATGGACCGGTTTTCCCGGTAATCCGTATTTGGC (site CCCTTCTCTTC) | 0.00807 |
| CCGAAGCCATGGACCGGTTTTCCCGGTAATCCGTATTTGTG (site CCGAAGCCTCA) | 0.0182 |
| CCGAATCCATGGACCGGTTTTCCCGGTAATCCGTATTTGCT (site CCGAATCCTAG) | 0.196 |
| CCGAATCCATGGACCGGTTTTCCCGGTAATCCGTATTTGCT (site CGGAATCCTAA) | 0 |
| CCGAATTCATGGACCGGTTTTCCCGGTAATCCGTATTTGGG (site CCGAATTCTCC) | 0 |
| CCGCACACATGGACCGGTTTTCCCGGTAATCCGTATTTGAA (site CCGCACACTTT) | 0.931 |
| CCGCATCCATGGACCGGTTTTCCCGGTAATCCGTATTTGGG (site CCGCATCCTCC) | 0.0031 |
| CCGCCAACATGGACCGGTTTTCCCGGTAATCCGTATTTGAG (site CCGCCAACTCT) | 0.356 |
| CCGCGGGCATGGACCGGTTTTCCCGGTAATCCGTATTTGCC (site CCGCGGGCTGG) | 1.43 |
| CCGCGTGCATGGACCGGTTTTCCCGGTAATCCGTATTTGCG (site CCGCGTGCTCG) | 0.222 |
| CCGCTCTCATGGACCGGTTTTCCCGGTAATCCGTATTTGTT (site CCGCTCTCTAA) | 1.51 |
| CCGCTGCCATGGACCGGTTTTCCCGGTAATCCGTATTTGAA (site CCGCTGCCTTT) | 0.0286 |
